The source of these data is ChEMBL document CHEMBL3045190, “Atomic and molecular parameters-based comparative QSAR study on tetrahydroimidazodiazepinone derivatives” (Med Chem Res, 2012).

For orientation: pEC50 means −log10 of the EC50, conventionally taken in molar units. Low readings indicate a high EC50, high ones a low EC50.

The assay deals with Human immunodeficiency virus type 1 reverse transcriptase (Human immunodeficiency virus 1, UniProt Q72547). Briefly: Binding affinity to Human immunodeficiency virus 1 reverse transcriptase.
Compound `CCC(=CCN1Cc2cc(Cl)cc3nc(S)n(c23)CC1C)CC` (centres undefined) came in with a negative logarithm of the EC50 (pEC50) of 7.82. To `CC1Cn2c(S)nc3cc(Cl)cc(c32)CN1CCC1CC1` (centres undefined) belongs 5.66. `C=C(C)CN1Cc2cc(Cl)cc3[nH]c(=O)n(c23)CC1C` (centres undefined) showed a negative-log EC50 (pEC50) of 5.33.

For `CC(C)=CCN1Cc2cc(C)cc3[nH]c(=S)n(c23)CC1C` (centres undefined), the negative logarithm of the EC50 (pEC50) was 6.1. To `C=C(C)CN1Cc2cc(Cl)cc3[nH]c(=S)n(c23)CC1C` (centres undefined) belongs 6.35.

The compound `CCC(=CCN1Cc2c(Cl)ccc3[nH]c(=S)n(c23)CC1C)CC` (centres undefined) registered a pEC50 of 8.29. The value for `CC(C)=CCN1Cc2cc(Cl)c(Cl)c3nc(S)n(c23)C[C@@H]1C` was 7.6; that for `CC1Cn2c(S)nc3cc(Cl)cc(c32)CN1CC1CCC1` (centres undefined) was 7.37. `C=CCN1Cc2cccc3[nH]c(=O)n(c23)CC1C` (centres undefined) showed a negative logarithm of the EC50 (pEC50) of 4.23. The value for `CC(C)=CCN1Cc2c(Br)ccc3nc(S)n(c23)C[C@@H]1C` was 8.52. To `CCC(=CCN1Cc2cc(C)cc3nc(O)n(c23)C[C@@H]1C)CC` belongs 6.51.

`CC(C)=CCN1Cc2c(C)ccc3nc(S)n(c23)C[C@@H]1C`: the pEC50 came out at 7.85.

For `C=C(C)CN1Cc2cccc3[nH]c(=O)n(c23)CC1C` (centres undefined), the pEC50 amounted to 4.85. Compound `CC(C)=CCN1Cc2cccc3[nH]c(=S)n(c23)CC1C` (centres undefined) had a negative logarithm of the EC50 (pEC50) of 7.36. Regarding `CC(C)=CCN1Cc2cccc3nc(O)n(c23)CC1C` (centres undefined), the pEC50 turned out to be 5.38. The value for `CCCN1Cc2cccc3[nH]c(=S)n(c23)CC1C` (centres undefined) was 6.62; that for `CC(C)=CCN1Cc2cc(Cl)cc3nc(O)n(c23)CC1C` (centres undefined) was 7.6; that for `CC(C)=CCN1Cc2cc(Cl)cc3nc(S)n(c23)CC1C` (centres undefined) [TIBO] was 7.04.

Turning to `CC(C)=CCN1Cc2c(Cl)ccc3[nH]c(=S)n(c23)C[C@@H]1C` [TIVIRAPINE], the pEC50 was determined as 8.34.
